Data taken from patent publication US20070172957A1, “Methods of identifying anti-inflammatory macrolides” (TAISHO PHARMACEUTICAL CO., LTD., priority 2004, published 2007).

Tested on: A549 cells
Assay: A549 microarray comparing macrolides with arachidonic acid pathway inhibitors, with IL-1β stimulation (Appendix C, Tables 6-9), and correlation analysis
Type: cell-based
Conditions: for Total # Differential Genes (95% confidence): A549, threshold 1.3; for FADS1 expression: A549 cells, microarray
Description: One inhibitor, triacsin C, acts on AA biosynthesis by inhibiting arachidonyl CoA synthetases, blocking the incorporation of free AA into phospholipids. Triacsin C is reasonably specific for AA compared to other fatty acids. However, triacsin C structurally resembles AA so it also may interfere with other steps in the AA pathway. Indomethacin is an inhibitor of COX1 and COX2 enzyme activities and therefore specifically blocks metabolism of AA into prostaglandins. […] It inhibits transcription of PLA2, and transcriptionally and post-transcriptionally regulates COX1 and COX2 activities. Dexamethasone has additional effects unrelated to AA through binding with the glucocorticoid receptor to glucocortcoid response elements.
A549 cells were pre-incubated overnight (17 hours) with macrolides (10 μM FMA-9045, 50 μM clarithromycin, 50 μM roxithromycin, 50 μM josamycin) and 15 μM triacsin C, and pre-incubated 2 hours with 100 nM indomethacin and 100 nM dexamethasone. All cells then were stimulated for 4 hours with IL-1β, because the activation of PLA2 and downstream signaling events generally requires an inflammatory stimulus. The various treatment conditions are shown below in Table 4. Following macrolide and inhibitor pre-treatment and IL-1 stimulation, the cells were lysed, total RNA was collected, and the poly-A+ mRNA fraction was purified. The resulting microarray data (Appendix C) were analyzed using the methods described in the Examples above.
The tables in Appendix C represent the effects of the arachidonic acid pathway inhibitors (“AA pathway inhibitors”) and the effects of the macrolides (“IL1+macrolide effects”). […] In both tables in Appendix C, the genes that meet this criterion (≧1.3 min fold change) are indicated in bold.
Quantitative analysis was done to determine how well the responses to the different AA pathway inhibitors correlated. The correlation values were assigned a p-value to provide statistical confidence to the correlation value. Correlation between experiments, across all spots showing good detection, was assessed by cosine vector angle to generate the data shown in Tables 7-9. A correlation coefficient close to one indicates strong correlation, whereas a value near zero indicates no correlation. P-values for each correlation coefficient were estimated based on a Fisher permutation test. In this test, each spot's expression ratios were randomly re-ordered across experiments and the degree of correlation between experiments was then reassessed. This was done repeatedly.

[1] = A549 + IL-1β, of the genes regulated by the labelled drug
[2] = IL1 + Triacsin vs IL1 + Triacsin + macrolide 50 μM
[3] = IL1 vs IL1 + drug, macrolides 50 μM (FMA 10 μM), triacsin C 15 μM, indomethacin and dexamethasone 100 nM

| SMILES | Number of differentially expressed genes also differential in response to indomethacin [1] | Number of differentially expressed genes also differential in response to triacsin C [1] | Total # Differential Genes (95% confidence) [2] | Total # Differential Genes (95% confidence) [3] | FADS1 expression |
| --- | --- | --- | --- | --- | --- |
| CC[C@H]1OC(=O)[C@H](C)[C@@H](O[C@H]2C[C@@](C)(OC)[C@@H](O)[C@H](C)O2)[C@H](C)[C@@H](O[C@@H]2O[C@H](C)C[C@H](N(C)C)[C@H]2O)[C@](C)(OC)C[C@@H](C)C(=O)[C@H](C)[C@@H](O)[C@]1(C)O [clarithromycin] | 25 | Forty-two | 4 | 54 | differentially expressed |
| CO[C@@H]1[C@@H](O[C@@H]2O[C@H](C)[C@@H](O[C@H]3C[C@@](C)(O)[C@@H](OC(=O)CC(C)C)[C@H](C)O3)[C@H](N(C)C)[C@H]2O)[C@@H](CC=O)C[C@@H](C)[C@@H](O)/C=C/C=C/C[C@@H](C)OC(=O)C[C@H]1OC(C)=O [josamycin] | – | – | – | 73 | – |
| CC[C@H]1OC(=O)[C@H](C)[C@@H](O[C@H]2C[C@@](C)(OC)[C@@H](O)[C@H](C)O2)[C@H](C)[C@@H](O[C@@H]2O[C@H](C)C[C@H](N(C)C)[C@H]2O)[C@](C)(O)C[C@@H](C)/C(=N\OCOCCOC)[C@H](C)[C@@H](O)[C@]1(C)O [roxithromycin] | – | – | 7 | 65 | differentially expressed |
